Source: patent US10765114B2, “4-amino-6-(pyridyl and 2-substitutedphenyl)-picolinates and 6-amino-2-(pyridyl and 2-substitutedphenyl)-pyrimidine-4-carboxylates and their use as herbicides” (Dow AgroSciences LLC, priority 2013, dated 2020)

Legend:
Assay in all cases: Post-Emergent Test III (Wheat and Barley)
[1] = test system: SETVI (green foxtail); format: in vivo, Setaria viridis; details: for pest or weed control at 35 g/ha / pest or weed control at 70 g/ha / pest or weed control at 140 g/ha: Setaria viridis, post-emergence, 504 h, postemergence, read-out: Visual Growth Reduction (%) 21 Days After Application, SETVI; for pest or weed control at 35 g/ha: 35 g ai/ha; for pest or weed control at 70 g/ha: 70 g ai/ha; for pest or weed control at 140 g/ha: 140 g ai/ha; for GR50, SETVI: effective dose for growth reduction of 50 percent; for GR50, SETVI / GR80, SETVI: probit analysis; for GR80, SETVI: effective dose for growth reduction of 80 percent
Description: (§1) Seeds of the desired test plant species were planted in Sun Gro MetroMix® 306 planting mixture, which typically has a pH of 6.0 to 6.8 and an organic matter content of about 30 percent, in plastic pots with a surface area of 103.2 square centimeters (cm^2). When required to ensure good germination and healthy plants, a fungicide treatment and/or other chemical or physical treatment was applied. The plants were grown for 7-36 days in a greenhouse with an approximate 14 h photoperiod which was maintained at about 18° C. during the day and 17° C. during the night. Nutrients and water were added on a regular basis and supplemental lighting was provided with overhead metal halide 1000-Watt lamps as necessary. The plants were employed for testing when they reached the second or third true leaf stage.
(§2) A weighed amount, determined by the highest rate to be tested, of each test compound was placed in a 25 mL glass vial and was dissolved in 4 mL of a 97:3 v/v mixture of acetone and DMSO to obtain concentrated stock solutions. […] The concentrated stock solutions obtained were diluted with 20 mL of an aqueous mixture containing acetone, water, isopropyl alcohol, DMSO, Agri-Dex crop oil concentrate, and X-77 surfactant in a 48:39:10:1.5:1.5:0.02 v/v ratio to obtain spray solutions containing the highest application rates. Additional application rates were obtained by serial dilution of 12 mL of the high rate solution into a solution containing 2 mL of 97:3 v/v mixture of acetone and DMSO and 10 mL of an aqueous mixture containing acetone, water, isopropyl alcohol, DMSO, Agri-Dex crop oil concentrate, and X-77 surfactant in a 48:39:10:1.5:1.5:0.02 v/v ratio to obtain ½×, ¼×, ⅛× and 1/16× rates of the high rate. Compound requirements are based upon a 12 mL application volume at a rate of 187 liters per hectare (L/ha). Formulated compounds were applied to the plant material with an overhead Mandel track sprayer equipped with 8002E nozzles calibrated to deliver 187 L/ha over an application area of 0.503 square meters at a spray height of 18 inches (43 cm) above the average plant canopy height. Control plants were sprayed in the same manner with the solvent blank.
(§3) The treated plants and control plants were placed in a greenhouse as described above and watered by subirrigation to prevent wash-off of the test compounds. After 21 dAYS, the condition of the test plants as compared with that of the untreated plants was determined visually and scored on a scale of 0 to 100 percent where 0 corresponds to no injury and 100 corresponds to complete kill and presented as indicated in Table A.
(§4) By applying the well-accepted probit analysis as described by J. Berkson in Journal of the American Statistical Society, 48, 565 (1953) and by D. Finney in “Probit Analysis” Cambridge University Press (1952), herbicidal injury of a specific compound at various rates can be used to calculate GR10, GR20, GR50, GR80 and GR90 values, which are defined as growth reduction factors that correspond to the effective dose of herbicide required to provide plant growth reduction (GR) of 10 percent, 20 percent, 50 percent, 80 percent and 90 percent, respectively. Probit analysis was applied to data collected from multiple dose rates of individual compounds utilizing the procedures explained in the following examples. The analysis of those dose rates is captured in the following tables.

[2] = test system: LOLSS; format: in vivo; details: for pest or weed control at 35 g/ha / pest or weed control at 70 g/ha / pest or weed control at 140 g/ha: post-emergence, 504 h, postemergence, read-out: Visual Growth Reduction (%) 21 Days After Application, LOLSS; for pest or weed control at 35 g/ha: 35 g ai/ha; for pest or weed control at 70 g/ha: 70 g ai/ha; for pest or weed control at 140 g/ha: 140 g ai/ha; for GR50, LOLSS: effective dose for growth reduction of 50 percent; for GR50, LOLSS / GR80, LOLSS: probit analysis; for GR80, LOLSS: effective dose for growth reduction of 80 percent
Method in brief: (§5)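 Test compounds, formulated in acetone/DMSO with aqueous crop oil concentrate and surfactant, were applied over the canopy at 187 L/ha at several serially halved rates. Subirrigated plants were scored for percent injury at 21 days, with GR10–GR90 derived by probit analysis.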

[3] = test system: BRSSS; format: in vivo; details: for GR50, BRSSS / GR80, BRSSS / GR90, BRSSS: probit analysis
Method in brief: as §5

[4] = test system: PHAMI (littleseed canarygrass); format: in vivo, Phalaris minor; details: for Visual Growth Reduction (%) 21 Days After Application, PHAMI: postemergence
Description: as §1, §2, §3, §4

[5] = BRSSS oil seed rape (Brassica napus), 17.5 g ai/ha, post-emergent
[6] = BRSSS oil seed rape (Brassica napus), 35 g ai/ha, post-emergent
[7] = BRSSS oil seed rape (Brassica napus), 70 g ai/ha, post-emergent
[8] = BRSSS, growth reduction of 50%, 21 days
[9] = BRSSS, growth reduction of 80%, 21 days
[10] = BRSSS, growth reduction of 90%, 21 days

Row | SMILES | pest or weed control at 35 g/ha [1] | pest or weed control at 70 g/ha [1] | pest or weed control at 140 g/ha [1] | GR50, SETVI [1] | GR80, SETVI [1] | pest or weed control at 35 g/ha [2] | pest or weed control at 70 g/ha [2] | pest or weed control at 140 g/ha [2] | GR50, LOLSS [2] | GR80, LOLSS [2] | other results
1 | COC(=O)c1nc(-c2ccc(Cl)c(F)c2OC)c(F)c(N)c1Cl [Compound 39, methyl 4-amino-3-chloro-6-(4-chloro-3-fluoro-2-methoxyphenyl)-5-fluoropicolinate] | 0 to 29% | 0 to 29% | 45 to 59% | >140 g ai/ha | >140 g ai/ha | 0 to 29% | 0 to 29% | 0 to 29% |  |  | 
2 | COC(=O)c1nc(-c2ccc(OC(F)F)nc2)c(F)c(N)c1Cl [Compound 71] | 30 to 44% | 45 to 59% | 75 to 84% | 72 g ai/ha | >140 g ai/ha | 0 to 29% | 0 to 29% | 30 to 44% | >140 g ai/ha | >140 g ai/ha | 
3 | Cc1c(-c2cc(N)c(Cl)c(C(=O)O)n2)ccc(Cl)c1Cl [Compound 28] |  |  |  |  |  |  |  |  |  |  | Visual Growth Reduction (%) 21 Days After Application, BRSSS [3, 5]: B (85-94); Visual Growth Reduction (%) 21 Days After Application, BRSSS [3, 6]: B (85-94); Visual Growth Reduction (%) 21 Days After Application, BRSSS [3, 7]: A (95-100); GR50, BRSSS [3, 8]: 1 g ai/ha; GR80, BRSSS [3, 9]: 5 g ai/ha; GR90, BRSSS [3, 10]: 18 g ai/ha
4 | COC(=O)c1nc(-c2ccc(Cl)c(F)c2C)cc(N)c1Cl [Compound 73] |  |  |  |  |  |  |  |  |  |  | Visual Growth Reduction (%) 21 Days After Application, PHAMI ([4]; 35 g ai/ha): D (60-74); Visual Growth Reduction (%) 21 Days After Application, PHAMI ([4]; 70 g ai/ha): D (60-74); Visual Growth Reduction (%) 21 Days After Application, PHAMI ([4]; 140 g ai/ha): C (75-84); GR50, PHAMI ([4]; effective dose for growth reduction of 50 percent, probit analysis): 40 g ai/ha; GR80, PHAMI ([4]; effective dose for growth reduction of 80 percent, probit analysis): 107 g ai/ha; GR90, PHAMI ([4]; effective dose for growth reduction of 90 percent, probit analysis): >140 g ai/ha; Visual Growth Reduction (%) 21 Days After Application, BRSSS ([3]; 35 g ai/ha, postemergence): C (75-84); Visual Growth Reduction (%) 21 Days After Application, BRSSS ([3]; 70 g ai/ha, postemergence): B (85-94); Visual Growth Reduction (%) 21 Days After Application, BRSSS ([3]; 140 g ai/ha, postemergence): A (95-100); GR50, BRSSS ([3]; effective dose for growth reduction of 50 percent): 5 g ai/ha; GR80, BRSSS ([3]; effective dose for growth reduction of 80 percent): 29 g ai/ha; GR90, BRSSS ([3]; effective dose for growth reduction of 90 percent): 73 g ai/ha
5 | Nc1c(F)c(-c2ccc(C3CC3)nc2)nc(C(=O)O)c1Cl [Compound 36, 4-amino-5-chloro-6′-cyclopropyl-3-fluoro-[2,3′-bipyridine]-6-carboxylic acid] | 30 to 44% | 45 to 59% |  | 59 g ai/ha | >140 g ai/ha | 45 to 59% | 45 to 59% |  | 44 g ai/ha | 131 g ai/ha | 
6 | Nc1c(F)c(-c2ccc(OC(F)F)nc2)nc(C(=O)O)c1Cl [Compound 66] | 30 to 44% | 60 to 74% | 75 to 84% | 49 g ai/ha | 112 g ai/ha | 0 to 29% | 0 to 29% | 30 to 44% | >140 g ai/ha | >140 g ai/ha | 
7 | COC(=O)c1nc(-c2ccc(Br)nc2)c(F)c(N)c1Cl [Compound 22, methyl 4-amino-6′-bromo-5-chloro-3-fluoro-[2,3′-bipyridine]-6-carboxylate] |  |  |  |  |  |  |  |  |  |  | Visual Growth Reduction (%) 21 Days After Application, BRSSS [3, 5]: D (60-74); Visual Growth Reduction (%) 21 Days After Application, BRSSS [3, 6]: B (85-94); Visual Growth Reduction (%) 21 Days After Application, BRSSS [3, 7]: B (85-94); GR50, BRSSS [3, 8]: 4 g ai/ha; GR80, BRSSS [3, 9]: 20 g ai/ha; GR90, BRSSS [3, 10]: 46 g ai/ha
